Test results as given in ChEMBL document CHEMBL1201862, “PubChem BioAssay data set” (2004).
The source made the active and inactive calls.

How the values were obtained:
[1] = molecular target: Serine/threonine-protein phosphatase PP1-alpha catalytic subunit (Homo sapiens, UniProt P62136); assay: inhibition of protein phosphatase 1 activity – biochemical, fluorescence, dose response (AID 2394)
[2] = molecular target: T1, Heat shock factor protein 1 (Mus musculus, UniProt P38532); assay: decrease of HSF1-responsive luciferase luminescence – cell-based, NIH3T3, dose retest, confirmation (AID 2382); format: functional;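 also: NIH3T3 fibroblasts with HSF1-driven luciferase reporter stressed by proteasome inhibitor MG132; luminescence from HSF1-driven luciferase expression after 8 hours of MG132 stress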
T1 sequence (P38532 whole entry): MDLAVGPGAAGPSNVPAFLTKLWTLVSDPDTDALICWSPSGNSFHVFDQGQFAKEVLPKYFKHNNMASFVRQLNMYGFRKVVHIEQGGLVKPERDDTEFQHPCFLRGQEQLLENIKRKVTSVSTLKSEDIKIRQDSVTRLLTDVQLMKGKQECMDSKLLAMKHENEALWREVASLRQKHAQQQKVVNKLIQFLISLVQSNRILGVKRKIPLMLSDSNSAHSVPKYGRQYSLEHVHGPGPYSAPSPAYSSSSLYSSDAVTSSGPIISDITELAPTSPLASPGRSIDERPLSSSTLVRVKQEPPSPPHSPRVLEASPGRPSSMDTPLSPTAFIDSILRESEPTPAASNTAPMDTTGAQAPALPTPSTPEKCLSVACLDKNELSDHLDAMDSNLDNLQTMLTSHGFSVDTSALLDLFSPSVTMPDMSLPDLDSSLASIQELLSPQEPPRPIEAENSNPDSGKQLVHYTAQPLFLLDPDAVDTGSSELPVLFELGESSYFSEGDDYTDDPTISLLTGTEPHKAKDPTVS

Protein RecA = molecular target: T2, Protein RecA (Mycobacterium tuberculosis, UniProt P9WHJ3); assay: Fluorescence Cell-Free Homogeneous Dose Retest to Identify Inhibitors of RecA-Intein Splicing Activity. [Related pubchem assays (depositor defined):AID2097, AID2223, AID489010, AID492950]; format: functional
T2 sequence (P9WHJ3 whole entry): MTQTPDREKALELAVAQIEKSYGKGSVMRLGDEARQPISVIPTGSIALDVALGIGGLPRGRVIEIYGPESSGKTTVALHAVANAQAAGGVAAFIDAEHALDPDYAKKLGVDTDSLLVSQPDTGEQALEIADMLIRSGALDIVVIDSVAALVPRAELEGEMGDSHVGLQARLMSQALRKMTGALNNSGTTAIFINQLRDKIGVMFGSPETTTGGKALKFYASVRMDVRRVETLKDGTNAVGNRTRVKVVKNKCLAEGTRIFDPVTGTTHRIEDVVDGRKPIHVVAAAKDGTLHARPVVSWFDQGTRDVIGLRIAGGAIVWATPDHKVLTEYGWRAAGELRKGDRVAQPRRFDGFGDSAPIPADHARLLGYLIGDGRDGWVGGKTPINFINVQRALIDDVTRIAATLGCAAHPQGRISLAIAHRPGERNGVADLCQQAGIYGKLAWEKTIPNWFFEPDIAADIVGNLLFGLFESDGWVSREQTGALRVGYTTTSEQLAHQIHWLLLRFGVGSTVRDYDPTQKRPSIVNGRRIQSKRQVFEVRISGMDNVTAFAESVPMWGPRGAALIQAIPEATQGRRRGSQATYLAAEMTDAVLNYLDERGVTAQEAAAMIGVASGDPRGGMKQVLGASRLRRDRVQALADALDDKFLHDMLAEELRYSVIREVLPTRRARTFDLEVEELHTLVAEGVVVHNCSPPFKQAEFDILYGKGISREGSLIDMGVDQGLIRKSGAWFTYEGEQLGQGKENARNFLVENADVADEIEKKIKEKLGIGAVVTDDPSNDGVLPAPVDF

[3] = Fluorescence-based biochemical high throughput screening dose response assay to identify inhibitors of Crimean-Congo Hemorrhagic Fever (CCHF) viral ovarian tumor domain protease (vOTU): Pep-AMC substrate.
Caspase-6 = molecular target: T3, Caspase-6 (Homo sapiens, UniProt P55212); assay: inhibition of CASP6 peptide cleavage – biochemical, VEID-R110 fluorescence, cherry-pick, dose response (AID 720632)
T3 sequence (P55212 whole entry): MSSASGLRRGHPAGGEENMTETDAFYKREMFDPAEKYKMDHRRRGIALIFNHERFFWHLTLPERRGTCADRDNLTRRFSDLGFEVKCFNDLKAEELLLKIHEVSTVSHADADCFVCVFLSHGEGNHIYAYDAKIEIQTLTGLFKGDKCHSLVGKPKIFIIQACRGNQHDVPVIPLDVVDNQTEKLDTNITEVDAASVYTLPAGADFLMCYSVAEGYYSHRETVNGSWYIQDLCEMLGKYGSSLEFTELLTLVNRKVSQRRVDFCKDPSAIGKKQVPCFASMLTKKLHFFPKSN

HEK293 = assay: EBV LMP1 TES2 canonical NF-kB signalling blockers – cell-based, HEK293, luciferase, cherry-pick, dose response (AID 588343); format: functional; conditions: Homo sapiens
[4] = molecular target: RAC-gamma serine/threonine-protein kinase (Homo sapiens, UniProt Q9Y243); format: functional
[5] = molecular target: 5'-AMP-activated protein kinase catalytic subunit alpha-1 (Homo sapiens, UniProt Q13131); format: functional
[6] = molecular target: Serine/threonine-protein kinase D2 (Homo sapiens, UniProt Q9BZL6); format: functional;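 also: measured against PRKD2 as one member of a kinome-wide kinase profiling panel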
[7] = molecular target: Mast/stem cell growth factor receptor Kit (Homo sapiens, UniProt P10721); format: functional;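 also: KIT entry within a kinase panel assay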
[8] = molecular target: Non-receptor tyrosine-protein kinase TYK2 (Homo sapiens, UniProt P29597); format: functional
[9] = molecular target: Serine/threonine-protein kinase Nek2 (Homo sapiens, UniProt P51955); format: functional
[10] = molecular target: Cyclin-dependent kinase 7 (Homo sapiens, UniProt P50613); format: functional;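 also: value comes from a kinome-wide kinase profiling panel in which CDK7 is one member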
[11] = molecular target: Lymphokine-activated killer T-cell-originated protein kinase (Homo sapiens, UniProt Q96KB5); format: functional;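 also: value comes from a kinase panel screen in which TOPK was one of the panel members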
[12] = molecular target: Inhibitor of nuclear factor kappa-B kinase subunit epsilon (Homo sapiens, UniProt Q14164); assay: Navigating the Kinome. Panel member name: IKBKE; format: functional
[13] = molecular target: Serine/threonine-protein kinase 3 (Homo sapiens, UniProt Q13188); format: functional;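 also: measured as one member of a kinome-wide kinase panel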

Sequence of RAC-gamma serine/threonine-protein kinase (Q9Y243 whole entry): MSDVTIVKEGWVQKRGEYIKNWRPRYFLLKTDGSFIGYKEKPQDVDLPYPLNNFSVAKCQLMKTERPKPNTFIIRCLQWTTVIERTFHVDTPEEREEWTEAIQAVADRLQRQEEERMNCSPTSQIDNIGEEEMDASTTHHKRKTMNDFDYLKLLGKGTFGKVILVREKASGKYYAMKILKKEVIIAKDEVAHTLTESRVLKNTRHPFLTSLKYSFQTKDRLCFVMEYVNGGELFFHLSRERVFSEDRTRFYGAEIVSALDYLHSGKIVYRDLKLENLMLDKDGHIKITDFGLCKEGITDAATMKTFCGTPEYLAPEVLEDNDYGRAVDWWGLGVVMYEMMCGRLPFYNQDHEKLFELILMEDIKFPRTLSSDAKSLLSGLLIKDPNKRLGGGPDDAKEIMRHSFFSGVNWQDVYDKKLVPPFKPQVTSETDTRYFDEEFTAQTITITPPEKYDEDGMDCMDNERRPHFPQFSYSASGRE
Sequence of Serine/threonine-protein kinase Nek2 (P51955 whole entry): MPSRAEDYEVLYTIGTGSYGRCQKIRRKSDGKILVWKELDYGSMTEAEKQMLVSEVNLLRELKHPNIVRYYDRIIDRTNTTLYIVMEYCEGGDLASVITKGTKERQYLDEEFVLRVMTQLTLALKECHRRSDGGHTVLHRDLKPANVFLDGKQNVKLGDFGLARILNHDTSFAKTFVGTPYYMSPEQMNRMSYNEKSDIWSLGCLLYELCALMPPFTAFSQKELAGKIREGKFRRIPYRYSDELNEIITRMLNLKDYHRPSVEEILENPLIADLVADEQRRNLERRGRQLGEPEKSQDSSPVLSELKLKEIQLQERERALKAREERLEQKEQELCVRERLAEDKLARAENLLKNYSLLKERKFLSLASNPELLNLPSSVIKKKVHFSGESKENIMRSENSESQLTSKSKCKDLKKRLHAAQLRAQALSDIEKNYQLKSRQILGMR
Sequence of Lymphokine-activated killer T-cell-originated protein kinase (Q96KB5 whole entry): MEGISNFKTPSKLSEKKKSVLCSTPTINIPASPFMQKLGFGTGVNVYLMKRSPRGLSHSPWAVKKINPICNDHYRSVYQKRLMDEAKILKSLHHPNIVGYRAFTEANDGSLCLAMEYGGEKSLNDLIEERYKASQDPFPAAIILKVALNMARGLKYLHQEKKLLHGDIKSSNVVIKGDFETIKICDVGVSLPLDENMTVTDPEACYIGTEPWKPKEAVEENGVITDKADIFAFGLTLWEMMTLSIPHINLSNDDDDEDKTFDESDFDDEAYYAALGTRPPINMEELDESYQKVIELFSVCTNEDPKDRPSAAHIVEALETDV
Sequence of Inhibitor of nuclear factor kappa-B kinase subunit epsilon (Q14164 whole entry): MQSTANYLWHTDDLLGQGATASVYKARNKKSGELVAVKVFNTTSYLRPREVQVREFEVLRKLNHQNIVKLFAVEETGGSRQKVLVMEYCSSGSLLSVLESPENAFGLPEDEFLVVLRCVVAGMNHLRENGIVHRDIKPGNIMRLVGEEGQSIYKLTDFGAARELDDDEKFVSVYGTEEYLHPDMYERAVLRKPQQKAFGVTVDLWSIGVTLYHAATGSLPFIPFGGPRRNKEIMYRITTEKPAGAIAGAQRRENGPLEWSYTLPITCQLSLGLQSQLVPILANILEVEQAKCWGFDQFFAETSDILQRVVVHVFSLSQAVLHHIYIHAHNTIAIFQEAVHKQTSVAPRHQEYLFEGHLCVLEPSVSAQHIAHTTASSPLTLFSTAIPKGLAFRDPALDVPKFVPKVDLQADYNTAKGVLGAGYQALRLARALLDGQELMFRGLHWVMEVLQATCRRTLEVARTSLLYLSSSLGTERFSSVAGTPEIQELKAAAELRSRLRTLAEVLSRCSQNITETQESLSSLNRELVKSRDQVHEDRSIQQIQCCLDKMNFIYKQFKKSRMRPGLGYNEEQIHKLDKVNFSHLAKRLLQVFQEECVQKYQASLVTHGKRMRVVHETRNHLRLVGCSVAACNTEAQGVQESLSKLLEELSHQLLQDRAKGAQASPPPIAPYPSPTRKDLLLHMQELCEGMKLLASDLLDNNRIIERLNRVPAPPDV
Sequence of Mast/stem cell growth factor receptor Kit (P10721 whole entry): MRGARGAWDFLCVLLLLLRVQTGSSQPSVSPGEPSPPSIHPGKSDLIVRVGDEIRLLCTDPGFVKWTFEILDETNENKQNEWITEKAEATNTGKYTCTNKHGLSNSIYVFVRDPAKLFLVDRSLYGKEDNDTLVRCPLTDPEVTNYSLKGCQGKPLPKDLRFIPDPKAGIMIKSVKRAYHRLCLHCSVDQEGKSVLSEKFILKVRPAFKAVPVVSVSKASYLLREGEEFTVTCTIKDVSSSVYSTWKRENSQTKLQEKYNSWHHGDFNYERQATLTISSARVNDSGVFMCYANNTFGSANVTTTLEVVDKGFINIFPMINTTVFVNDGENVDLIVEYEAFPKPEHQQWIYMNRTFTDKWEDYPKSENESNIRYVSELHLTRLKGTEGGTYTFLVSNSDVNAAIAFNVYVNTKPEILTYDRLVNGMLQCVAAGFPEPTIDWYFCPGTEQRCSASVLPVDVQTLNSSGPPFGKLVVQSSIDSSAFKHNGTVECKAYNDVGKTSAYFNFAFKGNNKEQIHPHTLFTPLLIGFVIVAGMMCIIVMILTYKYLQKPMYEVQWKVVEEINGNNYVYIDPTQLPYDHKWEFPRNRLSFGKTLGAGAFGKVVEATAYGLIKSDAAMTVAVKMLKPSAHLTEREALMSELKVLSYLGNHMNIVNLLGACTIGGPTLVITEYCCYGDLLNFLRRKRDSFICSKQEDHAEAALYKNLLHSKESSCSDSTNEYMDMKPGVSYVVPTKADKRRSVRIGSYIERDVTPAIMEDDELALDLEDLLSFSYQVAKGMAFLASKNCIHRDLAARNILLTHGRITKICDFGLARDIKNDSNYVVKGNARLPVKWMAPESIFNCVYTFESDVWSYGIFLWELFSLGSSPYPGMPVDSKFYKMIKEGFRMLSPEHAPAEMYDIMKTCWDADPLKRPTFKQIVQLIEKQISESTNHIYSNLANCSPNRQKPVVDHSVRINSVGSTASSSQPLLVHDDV
Sequence of 5'-AMP-activated protein kinase catalytic subunit alpha-1 (Q13131 whole entry): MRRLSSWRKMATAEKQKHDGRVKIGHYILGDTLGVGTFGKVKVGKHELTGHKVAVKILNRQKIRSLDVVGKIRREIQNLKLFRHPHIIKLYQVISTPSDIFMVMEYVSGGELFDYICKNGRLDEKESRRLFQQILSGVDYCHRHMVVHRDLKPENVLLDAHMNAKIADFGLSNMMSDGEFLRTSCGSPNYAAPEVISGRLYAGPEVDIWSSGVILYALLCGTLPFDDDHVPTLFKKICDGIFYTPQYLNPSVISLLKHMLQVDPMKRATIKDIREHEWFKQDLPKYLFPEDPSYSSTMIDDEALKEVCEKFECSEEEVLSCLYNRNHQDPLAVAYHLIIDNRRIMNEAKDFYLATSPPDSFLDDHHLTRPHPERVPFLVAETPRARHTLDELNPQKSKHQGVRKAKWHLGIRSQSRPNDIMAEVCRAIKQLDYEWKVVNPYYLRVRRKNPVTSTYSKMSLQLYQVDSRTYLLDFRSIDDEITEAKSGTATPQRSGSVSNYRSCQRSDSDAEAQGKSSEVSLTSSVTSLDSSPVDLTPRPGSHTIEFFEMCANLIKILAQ
Sequence of Serine/threonine-protein kinase D2 (Q9BZL6 whole entry): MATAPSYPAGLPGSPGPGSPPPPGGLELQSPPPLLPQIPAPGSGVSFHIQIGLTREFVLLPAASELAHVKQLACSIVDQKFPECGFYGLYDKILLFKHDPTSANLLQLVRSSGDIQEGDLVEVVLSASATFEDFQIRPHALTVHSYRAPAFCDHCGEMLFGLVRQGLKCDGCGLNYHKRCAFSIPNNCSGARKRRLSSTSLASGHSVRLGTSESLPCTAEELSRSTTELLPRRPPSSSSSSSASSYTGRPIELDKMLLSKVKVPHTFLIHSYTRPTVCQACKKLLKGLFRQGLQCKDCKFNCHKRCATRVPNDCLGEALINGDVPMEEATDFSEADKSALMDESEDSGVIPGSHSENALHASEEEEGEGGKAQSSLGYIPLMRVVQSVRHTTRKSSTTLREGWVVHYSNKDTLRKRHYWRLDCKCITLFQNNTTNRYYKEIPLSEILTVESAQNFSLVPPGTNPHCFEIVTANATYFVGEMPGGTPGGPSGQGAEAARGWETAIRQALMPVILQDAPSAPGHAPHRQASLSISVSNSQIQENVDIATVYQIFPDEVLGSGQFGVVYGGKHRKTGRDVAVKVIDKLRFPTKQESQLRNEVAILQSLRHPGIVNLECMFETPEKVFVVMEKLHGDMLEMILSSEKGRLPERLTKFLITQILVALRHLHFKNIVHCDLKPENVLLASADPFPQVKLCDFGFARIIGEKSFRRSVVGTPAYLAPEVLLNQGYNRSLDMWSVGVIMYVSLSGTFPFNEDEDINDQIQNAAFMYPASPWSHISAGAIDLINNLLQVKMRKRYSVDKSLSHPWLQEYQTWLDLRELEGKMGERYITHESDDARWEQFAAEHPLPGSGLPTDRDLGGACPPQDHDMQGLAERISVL
Sequence of Serine/threonine-protein phosphatase PP1-alpha catalytic subunit (P62136 whole entry): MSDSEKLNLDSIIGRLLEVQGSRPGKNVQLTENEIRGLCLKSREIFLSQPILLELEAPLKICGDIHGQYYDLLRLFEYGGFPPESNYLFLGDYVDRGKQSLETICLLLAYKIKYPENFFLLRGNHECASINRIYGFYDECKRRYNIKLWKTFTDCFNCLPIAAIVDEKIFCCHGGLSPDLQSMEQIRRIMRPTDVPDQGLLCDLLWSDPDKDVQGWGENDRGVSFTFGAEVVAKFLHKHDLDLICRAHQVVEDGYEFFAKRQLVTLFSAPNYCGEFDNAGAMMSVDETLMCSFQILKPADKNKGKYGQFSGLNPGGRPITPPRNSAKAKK

For `NS(=O)(=O)c1ccc(NC2=CC(=O)C(=O)c3ccccc32)cc1`, the IC50 [1] was 38.9 µM (not active), the EC50 [2] was > 195 µM (not active) and the EC50 (Protein RecA) was 0.667 µM (active).

For `CC(C)N(C(=O)Nc1ccc2nsnc2c1)C(C)C`, the IC50 [3] was > 4.25 µM (active) and the AC50 (Caspase-6) was 5.6 µM (active).

In the case of `O=C(N/N=C/c1ccc(O)cc1O)c1ccc(CN2C(=O)c3cccc4cccc2c34)cc1`, the AC50 (HEK293) is reported as 6.46 µM (active).

In the case of `Clc1cc(-c2c[nH]c3ncccc23)nc(NC2CCCCC2)n1`, the Ki [4] is reported as > 10 µM (inactive), the Ki [5] is reported as > 2 µM (inactive) and the Ki [6] is reported as 0.2 µM (active). For the same molecule, the Ki [7] was > 1.26 µM (inactive), the Ki [8] was > 2 µM (inactive) and the Ki [9] was > 10 µM (inactive). For the same molecule, the Ki [10] was > 6.31 µM (inactive), the Ki [11] was > 10 µM (inactive) and the Ki [12] was > 3.16 µM (inactive). The Ki [13] was > 1.58 µM (inactive).
